Measurements from patent US20130072424A1, “COMPOUNDS AND METHODS FOR PEPTIDE RIBONUCLEIC ACID CONDENSATE PARTICLES FOR RNA THERAPEUTICS” (MARINA BIOTECH, INC., priority 2005, published 2013).
Ends that are not written are not given here. Peptide text beside a SMILES is read from it. * marks the point of attachment. 5FAM = O=C1OC2(c3ccc(O)cc3Oc3cc(O)ccc32)c2ccc(C(=O)*)cc21

Legend:
[1] = system: primary mouse tail fibroblast (MTF) cells; experiment: Peptide cell-uptake assay (FITC-labeled peptide, flow cytometry); type: cell-based; details: peptide 10 μM; for Peptide FITC MFI: relative values
Method: The efficacy of the full-length and truncated forms of polypeptide PN73 to enter cells was tested in vitro by a cell-uptake assay with primary mouse tail fibroblast (MTF) cells. The number of cells in culture that receive the FITC-labeled peptide was measured by flow cytometry. The percentage peptide cell-uptake was expressed relative to the total number of cells present in the culture. In addition, the Mean Fluorescence Intensity (MFI) was used to evaluate the quantity of FITC-labeled peptide found within cells. MFI directly correlates with the amount of FITC-labeled peptide within the cell: higher relative MFI value correlates with a greater amount of intracellular FITC-labeled peptides. Peptides were evaluated at 0.63 μM, 2.5 μM and 10 μM concentrations; PN768 was tested at 2 μM, 10 μM and 50 μM. […]

[2] = system: mouse tail fibroblast (MTF) cells; experiment: siRNA cell-uptake assay and MFI (Cy5-conjugated siRNA, flow cytometry), Examples 14-16; type: cell-based; details: for % siRNA Cell-Uptake / siRNA Cy5 MFI: peptide 10 μM; for siRNA Cy5 MFI: relative values
Method: As described above, the cell-uptake assay determines the number of cells that receive Cy5-conjugated siRNA when complexed with a peptide. siRNA cell-uptake was assessed by flow cytometry (refer to Example 2 for details). Uptake was expressed as a percentage calculated by dividing the number of cells containing Cy5-conjugated siRNA by the total number of transfected and untransfected cells in culture. Mean Fluorescence Intensity (MFI) was measured by flow cytometry and determined the amount of Cy5-conjugated siRNA found within cells. The MFI value directly correlates with the amount of Cy5-conjugated siRNA within the cell, thus, a higher MFI value indicates a greater number of Cy5-conjugated siRNA within the cells.
The siRNA cell-uptake assay and MFI measurements were performed as described previously in Examples 2 and 3. […]

hTNF-α mRNA = experiment: Knockdown of hTNF-α gene expression by siRNA/peptide complexes in LPS-stimulated human monocytes (branch DNA mRNA); type: cell-based; details: for KD: knockdown of hTNF-α mRNA vs Qneg, siRNAs A19S21, 21/21, LC20 at 20 nM, molar ratio 1 to 5; for siRNA Knockdown Activity: 20 nM siRNA
Method: Specifically, the ability of siRNA/peptide complexes to modulate expression of the human tumor necrosis factor-α (hTNF-α) gene was assessed. The significance of targeting the hTNF-α gene is that it is implicated in mediating the occurrence or progression of rheumatoid arthritis (RA) when over-expressed in human and other mammalian subjects.
Human monocytes were used as a model system to determine the effect of siRNA/peptide complexes on hTNF-α gene expression. Qneg represents a random siRNA sequence and functioned as the negative control. […] A19S21, 21/21 and LC20 are siRNAs that target hTNF-α mRNA.
Healthy human blood was purchased from Golden West Biologicals (CA), the peripheral blood mononuclear cells (PBMC) were purified from the blood using Ficoll-Pague plus (Amersham) gradient. Human monocytes were then purified from the PBMCs fraction using magnetic microbeads from Miltenyi Biotech. Isolated human monocytes were resuspended in IMDM supplemented with 4 mM glutamine, 10% FBS, 1× non-essential amino acid and 1× pen-strep, and stored at 4 C until use.
In a 96 well flat bottom plate, human monocytes were seeded at 100 K/well/100 μl in OptiMEM medium (Invitrogen). Exemplary polynucleotide delivery-enhancing polypeptides were mixed with 20 nM siRNA at a molar ratio of 1 to 5 in OptiMEM medium at room temperature for 5 minutes. At the end of incubation, FBS was added to the mixture (final 3%), and 50 μl of the mixture was added to the cells. The cells were incubated at 37° C. for 3 hours. After incubation, the cells were transferred to V-bottom plate and pelleted at 1500 rpm for 5 min. The cells were resuspended in growth medium (IMDM with glutamine, non-essential amino acid, and pen-strep). After an overnight incubation, the monocytes were stimulated by application of LPS (Sigma) at 1 ng/ml for 3 hours to increase expression of TNF-α expression levels. After induction by LPS, cells were collected as above for mRNA quantification, and supernatant was saved for protein quantification if desired.
For mRNA measurement, branch DNA technology from Genospectra (CA) was used according to manufacturer's specification. To quantitate mRNA level in the cells, both house keeping gene (cypB) and target gene (TNF-α) mRNA were measured, and the reading for TNF-α was normalized with cypB to obtain relative luminescence unit. […]

in vitro = details: mouse, mouse tail fibroblast (MTF) cells
Method: Fluorescence activated cell sorting (FACS) analysis were performed using Beckman Coulter FC500 cell analyzer (Fullerton, Calif.). The instrument was adjusted according to the fluorescence probes used (FAM or Cy5 for siRNA and FITC and PE for CD14). Propidium iodide (Fluka, St Louis) and AnnexinV (R&D systems, Minneapolis) were used as indicators for cell viability and cytotoxicity. A brief step-by-step protocol is detailed below. • (a) After exposure to the complex of siRNA/peptide, cells were incubated for at least 3 hours. • (b) Wash cells with 200 μl PBS. • (c) Detach cells with 15 μl TE, incubate at 370 C. • (d) Re-suspend cells in five wells with 30 μl FACS solution (PBS with 0.5% BSA, and 0.1% sodium Azide). • (e) Combine all five wells into a tube. • (f) Add PI (Propidium iodide) 5 μl into each tube. • (g) Analyze the cells with fluorescence activated cell sorting (FCAS) according to manufacturer's instructions.
For siRNA uptake analysis, cells were washed with PBS, treated with trypsin (attached cells only), and then analyzed by flow cytometry. […] In order to differentiate the cellular uptake from the membrane insertion of fluorescence labeled siRNA, trypan blue was used to quench the fluorescence on the cell membrane surface.
FITC-tagged peptides were diluted in Opti-MEM® media (Invitrogen) for about 5 minutes at room temperature and then added to cells. Cells were transfected for 3 hours at and washed with PBS, treated with trypsin, and then analyzed by flow cytometry. Cell viability was determined as above. Cellular uptake was distinguished from the membrane insertion using trypan blue to quench any fluorescence on the cell membrane surface.

human monocytes = experiment: Cytotoxicity with human monocytes; type: cell-based
[3] = system: mouse tail fibroblast (MTF) cells; experiment: Polypeptide mediated siRNA delivery screen (Cy5-siRNA cell-uptake and MFI), Example 17; type: cell-based; details: for MFI measurement relative to the PN643 positive control, in words / MFI measurement relative to the positive control: Cy5-conjugated siRNA; for percent siRNA cell-uptake activity (Table 24): Cy5 conjugated LC20 siRNA, concentration not given
Method: siRNA uptake by cells was assessed by flow cytometry (refer to Example 2 for details). Uptake was expressed as a percentage calculated by dividing the number of cells containing Cy5-conjugated siRNA by the total number of transfected and untransfected cells in culture. Mean Fluorescence Intensity (MFI) was measured by flow cytometry and determined the amount of Cy5-conjugated siRNA found within cells. The MFI value directly correlates with the amount of Cy5-conjugated siRNA within the cell, thus, a higher MFI value indicates a greater number of Cy5-conjugated siRNA within the cells.

[4] = siRNA 21/21 MD8, siRNA:Peptide Ratio 1:5, human monocytes
[5] = siRNA 21/21 MD8, siRNA:Peptide Ratio 1:10, human monocytes
[6] = siRNA A19S21 MD8, siRNA:Peptide Ratio 1:5, human monocytes
[7] = siRNA A19S21 MD8, siRNA:Peptide Ratio 1:10, human monocytes
[8] = siRNA LC20, siRNA:Peptide Ratio 1:5, human monocytes
[9] = siRNA LC20, siRNA:Peptide Ratio 1:10, human monocytes

## CC(C)C[C@H](NC(=O)[C@@H](NC(=O)[C@H](CCCCN)NC(=O)[C@H](Cc1ccc(O)cc1)NC(=O)[C@@H](NC(=O)[C@H](Cc1ccc(O)cc1)NC(=O)[C@@H](NC(=O)[C@H](CO)NC(=O)[C@H](Cc1ccc(O)cc1)NC(=O)[C@H](CO)NC(=O)[C@H](CCC(=O)O)NC(=O)[C@H](CCCCN)NC(=O)[C@@H](N)CCCNC(=N)N)C(C)C)C(C)C)C(C)C)C(=O)N[C@@H](CCCCN)C(=O)N[C@@H](CCC(N)=O)C(=O)NCC(=O)N[C@@H](CCCCNC(=O)c1ccc2c(c1)C(=O)OC21c2ccc(O)cc2Oc2cc(O)ccc21)C(=O)NCC(N)=O [PN708] (H-RKESYSVYVYKVLKQGK(5FAM)G-NH2)
[1]
  % Peptide Cell-Uptake: 97 (10 μM) %
  Peptide FITC MFI: 10 (10 μM)
[2]
  amount of Cy5-siRNA delivered into cells compared to the full-length PN73 (PN690) peptide: about doubled
  % siRNA Cell-Uptake: 42 (10 μM) %
  siRNA Cy5 MFI: 34 (10 μM)
[2]; Cy5-LC20 siRNA, PN708 at 80 μM
  maximum siRNA cell-uptake activity: 95%
hTNF-α mRNA; human monocytes
  KD: + (the peptide/siRNA complex had knockdown activity of 80% of the Qneg negative control siRNA (20% reduction in mRNA levels compared to the Qneg negative control))
hTNF-α mRNA; siRNAs A19S21, 21/21 and LC20, human monocytes
  siRNA knockdown activity of TNF-α mRNA, in words: no observable knockdown activity
In vitro
  viability at 3 h: > 90%

## RKESYSVYVYKVLKQ-NH2 [PN766]
Human monocytes
  cytotoxicity effects: No cytotoxicity effects were observed

## KKKKKRFSFKKSFKLSGFSFKKNKK-amide (KKKKKRFSFKKSFKLSGFSFKKNKK-NH2) [PN681, MARCKS]
[3]
  MFI measurement relative to the PN643 positive control, in words: double
hTNF-α mRNA; all three siRNAs, ratios of 1:5 and 1:10, human monocytes
  hTNF-α knockdown relative to Qneg complexed with the same polypeptide, in words: little to no knockdown activity
hTNF-α mRNA; [4]
  siRNA Knockdown Activity: −
hTNF-α mRNA; [5]
  siRNA Knockdown Activity: −
hTNF-α mRNA; [6]
  siRNA Knockdown Activity: +/− (the peptide/siRNA complex had a knockdown activity of approximately 90% of the Qneg negative control siRNA (10% reduction in mRNA levels compared to the Qneg negative control))
hTNF-α mRNA; [7]
  siRNA Knockdown Activity: +/− (the peptide/siRNA complex had a knockdown activity of approximately 90% of the Qneg negative control siRNA (10% reduction in mRNA levels compared to the Qneg negative control))
hTNF-α mRNA; [8]
  siRNA Knockdown Activity: −
hTNF-α mRNA; [9]
  siRNA Knockdown Activity: −

## RQIRIWFQNRRMRWRR-amide (RQIRIWFQNRRMRWRR-NH2) [PN714, PenArg]
[3]
  MFI measurement relative to the PN643 positive control, in words: significantly lower
  percent siRNA cell-uptake activity (Table 24): 43%

## RSVCRQIKICRRRGGCYYKCTNRPY-amide (RSVCRQIKICRRRGGCYYKCTNRPY-NH2; cysteine pairing not given here) [PN680, Androctonin]
[3]
  MFI measurement relative to the PN643 positive control, in words: comparable
hTNF-α mRNA; any of the hTNF-α specific siRNAs at a 1:5 ratio
  hTNF-α mRNA knockdown relative to the Qneg/PN680 control complex, in words: significant knockdown activity
hTNF-α mRNA; [4]
  siRNA Knockdown Activity: + (the peptide/siRNA complex had knockdown activity of 80% of the Qneg negative control siRNA (20% reduction in mRNA levels compared to the Qneg negative control))
hTNF-α mRNA; [5]
  siRNA Knockdown Activity: +/− (the peptide/siRNA complex had a knockdown activity of approximately 90% of the Qneg negative control siRNA (10% reduction in mRNA levels compared to the Qneg negative control))
hTNF-α mRNA; [6]
  siRNA Knockdown Activity: + (the peptide/siRNA complex had knockdown activity of 80% of the Qneg negative control siRNA (20% reduction in mRNA levels compared to the Qneg negative control))
hTNF-α mRNA; [7]
  siRNA Knockdown Activity: +/− (the peptide/siRNA complex had a knockdown activity of approximately 90% of the Qneg negative control siRNA (10% reduction in mRNA levels compared to the Qneg negative control))
hTNF-α mRNA; [8]
  siRNA Knockdown Activity: + (the peptide/siRNA complex had knockdown activity of 80% of the Qneg negative control siRNA (20% reduction in mRNA levels compared to the Qneg negative control))
hTNF-α mRNA; [9]
  siRNA Knockdown Activity: + (the peptide/siRNA complex had knockdown activity of 80% of the Qneg negative control siRNA (20% reduction in mRNA levels compared to the Qneg negative control))

## LGLLLRHLRHHSNLLANIPRKKRRQRRRPP-amide (LGLLLRHLRHHSNLLANIPRKKRRQRRRPP-NH2) [PN759]
[3]
  MFI measurement relative to the positive control: ~6 fold

## KETWWETWWTEWSQPKKKRKV-amide (KETWWETWWTEWSQPKKKRKV-NH2) [PN682, Pep-1]
[3]
  MFI measurement relative to the PN643 positive control, in words: comparable

## GTAMRILGGVIPRKKRRQRRRPPQ-amide (GTAMRILGGVIPRKKRRQRRRPPQ-NH2) [PN734, m-Calpain + TAT]
[3]
  MFI measurement relative to the PN643 positive control, in words: significantly lower

## SYSVYVYKVLKQ-GK[EPSILON-5CFG-amide (SYSVYVYKVLKQG-{K(5CF)-Gly-NH2}) [PN653]
[1]
  % Peptide Cell-Uptake: 95 (10 μM) %
  Peptide FITC MFI: 8 (10 μM)
[2]
  % siRNA Cell-Uptake: 1.7 (10 μM) %
  siRNA Cy5 MFI: 4 (10 μM)
hTNF-α mRNA; human monocytes
  KD: −

## RKKRRQRRRPPVAYISRGGVSTYYSDTVKGRFTRQKYNKRA-amide (RKKRRQRRRPPVAYISRGGVSTYYSDTVKGRFTRQKYNKRA-NH2) [PN760, TAT + Peptide P3a]
[3]
  MFI measurement relative to the positive control: approximately 13 fold

## RQIKIWFQNRRMKWKK-amide (RQIKIWFQNRRMKWKK-NH2) [PN694, Penetratin]
[3]
  MFI measurement relative to the PN643 positive control, in words: significantly lower
  percent siRNA cell-uptake activity (Table 24): 54%
